Our source for the inhibition values is patent US9302988B2, “Fluoromethyl-substituted pyrrole carboxamides” (GRÜNENTHAL GMBH, priority 2012, dated 2016).

The assay concerns the target T1, Human CaV2.2 channels (Homo sapiens, UniProt Q00975).
T1 construct: expressed in transfected cells
In words: Fluorescent assay for CaV2.2 channels using potassium depolarization to induce channel opening (FLIPR, Fluo-4). In kind it is cell-based. Conditions: 3 μM test compound, 30 mM KCl, HEK293 cells stably expressing human CaV2.2; read-out: %-Inhib (CaV2.2) @3 μM @30 mM KCl. A digest of the protocol: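 Channel block was read as the baseline-normalized peak Ca²⁺ signal (Fluo-4, 480/535 nm) after a high-KCl depolarizing addition (210 mM KCl buffer). Beforehand, compound sat 15 min at 25 °C on HEK293 cells carrying human CaV2.2, α2δ/β subunits and Kir2.3, in pH 7.4 buffer with 30 mM KCl.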

T1 sequence (Q00975 whole entry): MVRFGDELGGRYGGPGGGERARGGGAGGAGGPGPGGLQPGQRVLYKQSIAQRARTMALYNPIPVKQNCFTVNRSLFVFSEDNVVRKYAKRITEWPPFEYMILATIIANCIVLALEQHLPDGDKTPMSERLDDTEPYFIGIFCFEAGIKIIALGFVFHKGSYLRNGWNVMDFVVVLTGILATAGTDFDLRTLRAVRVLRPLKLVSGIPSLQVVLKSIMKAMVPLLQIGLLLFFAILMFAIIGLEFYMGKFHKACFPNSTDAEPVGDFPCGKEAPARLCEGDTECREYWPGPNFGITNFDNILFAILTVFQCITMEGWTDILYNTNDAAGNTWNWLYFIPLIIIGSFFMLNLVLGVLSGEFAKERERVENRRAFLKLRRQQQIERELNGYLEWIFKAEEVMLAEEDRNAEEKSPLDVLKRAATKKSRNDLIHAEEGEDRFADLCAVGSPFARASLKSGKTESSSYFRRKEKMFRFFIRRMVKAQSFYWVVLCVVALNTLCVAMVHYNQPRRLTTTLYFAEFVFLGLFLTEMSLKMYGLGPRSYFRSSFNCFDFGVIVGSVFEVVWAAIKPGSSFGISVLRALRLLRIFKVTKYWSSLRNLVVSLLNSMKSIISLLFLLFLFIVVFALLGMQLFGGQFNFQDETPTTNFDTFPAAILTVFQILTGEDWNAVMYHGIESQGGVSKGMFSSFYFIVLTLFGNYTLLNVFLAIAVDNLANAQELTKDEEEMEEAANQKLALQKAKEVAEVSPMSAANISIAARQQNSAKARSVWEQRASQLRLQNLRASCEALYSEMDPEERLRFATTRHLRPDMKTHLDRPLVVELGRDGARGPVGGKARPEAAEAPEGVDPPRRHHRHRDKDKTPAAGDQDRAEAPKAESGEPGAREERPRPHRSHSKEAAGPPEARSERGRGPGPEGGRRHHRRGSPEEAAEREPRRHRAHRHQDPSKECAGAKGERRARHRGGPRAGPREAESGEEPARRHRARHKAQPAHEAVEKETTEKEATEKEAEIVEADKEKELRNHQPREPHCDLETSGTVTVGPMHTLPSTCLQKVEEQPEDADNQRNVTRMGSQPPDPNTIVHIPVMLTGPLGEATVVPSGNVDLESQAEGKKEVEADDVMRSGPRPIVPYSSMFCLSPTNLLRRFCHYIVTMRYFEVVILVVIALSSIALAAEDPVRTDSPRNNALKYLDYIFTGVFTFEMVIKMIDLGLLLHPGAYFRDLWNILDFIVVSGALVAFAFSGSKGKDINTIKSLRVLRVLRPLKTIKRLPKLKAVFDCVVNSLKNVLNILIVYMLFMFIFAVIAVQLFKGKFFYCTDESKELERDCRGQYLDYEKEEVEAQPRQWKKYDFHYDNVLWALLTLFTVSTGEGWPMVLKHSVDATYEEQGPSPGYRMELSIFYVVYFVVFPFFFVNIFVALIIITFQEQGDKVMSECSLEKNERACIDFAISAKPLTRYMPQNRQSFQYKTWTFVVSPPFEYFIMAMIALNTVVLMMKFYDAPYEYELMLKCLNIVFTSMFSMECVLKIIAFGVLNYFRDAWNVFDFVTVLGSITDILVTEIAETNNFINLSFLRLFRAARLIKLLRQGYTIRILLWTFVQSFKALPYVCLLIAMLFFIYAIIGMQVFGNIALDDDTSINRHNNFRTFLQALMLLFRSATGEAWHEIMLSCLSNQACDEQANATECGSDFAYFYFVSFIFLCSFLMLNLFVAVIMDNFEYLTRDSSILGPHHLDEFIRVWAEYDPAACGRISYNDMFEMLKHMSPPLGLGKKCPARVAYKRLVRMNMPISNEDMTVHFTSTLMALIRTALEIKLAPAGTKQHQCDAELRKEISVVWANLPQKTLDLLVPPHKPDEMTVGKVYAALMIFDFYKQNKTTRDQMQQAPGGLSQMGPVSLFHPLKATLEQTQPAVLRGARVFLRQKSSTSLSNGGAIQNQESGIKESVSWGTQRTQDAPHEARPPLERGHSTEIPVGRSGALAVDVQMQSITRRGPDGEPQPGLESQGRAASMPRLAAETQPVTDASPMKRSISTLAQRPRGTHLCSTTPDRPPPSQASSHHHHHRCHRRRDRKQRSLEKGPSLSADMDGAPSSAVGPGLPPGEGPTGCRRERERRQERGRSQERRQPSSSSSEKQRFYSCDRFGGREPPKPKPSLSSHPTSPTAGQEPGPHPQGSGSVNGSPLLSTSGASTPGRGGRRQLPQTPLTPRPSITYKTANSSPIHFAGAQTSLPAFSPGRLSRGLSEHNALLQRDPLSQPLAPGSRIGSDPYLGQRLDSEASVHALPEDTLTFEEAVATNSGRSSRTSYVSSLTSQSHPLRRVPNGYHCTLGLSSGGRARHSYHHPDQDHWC
T1 sequence (P54289 25-1103, further chain): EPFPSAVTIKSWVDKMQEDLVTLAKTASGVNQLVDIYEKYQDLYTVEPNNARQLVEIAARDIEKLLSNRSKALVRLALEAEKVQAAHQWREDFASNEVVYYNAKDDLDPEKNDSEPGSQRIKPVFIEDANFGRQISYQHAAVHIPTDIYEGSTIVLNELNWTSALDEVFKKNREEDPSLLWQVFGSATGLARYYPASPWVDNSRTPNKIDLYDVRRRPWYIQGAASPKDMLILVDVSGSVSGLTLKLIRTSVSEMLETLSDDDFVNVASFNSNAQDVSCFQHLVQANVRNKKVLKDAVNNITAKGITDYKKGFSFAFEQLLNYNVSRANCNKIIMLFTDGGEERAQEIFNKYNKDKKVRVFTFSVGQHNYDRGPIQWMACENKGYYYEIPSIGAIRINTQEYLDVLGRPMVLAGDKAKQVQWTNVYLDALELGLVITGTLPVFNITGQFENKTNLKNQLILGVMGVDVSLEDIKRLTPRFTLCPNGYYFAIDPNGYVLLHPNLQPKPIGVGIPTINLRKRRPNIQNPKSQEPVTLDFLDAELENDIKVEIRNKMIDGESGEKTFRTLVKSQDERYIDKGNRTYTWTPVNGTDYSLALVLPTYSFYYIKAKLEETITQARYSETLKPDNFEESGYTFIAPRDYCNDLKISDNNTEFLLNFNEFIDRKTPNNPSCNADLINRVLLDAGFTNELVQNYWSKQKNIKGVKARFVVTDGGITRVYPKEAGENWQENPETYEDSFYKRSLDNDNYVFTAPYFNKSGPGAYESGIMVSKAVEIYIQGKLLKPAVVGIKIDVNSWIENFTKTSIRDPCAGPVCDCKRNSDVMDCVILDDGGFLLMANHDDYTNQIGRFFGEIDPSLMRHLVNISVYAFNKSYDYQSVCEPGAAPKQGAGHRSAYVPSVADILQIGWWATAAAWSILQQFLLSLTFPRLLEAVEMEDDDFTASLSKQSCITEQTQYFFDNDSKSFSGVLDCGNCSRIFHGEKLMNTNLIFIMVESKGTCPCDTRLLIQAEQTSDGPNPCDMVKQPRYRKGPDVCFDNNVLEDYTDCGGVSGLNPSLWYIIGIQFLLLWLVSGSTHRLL
T1 sequence (P54284 whole entry, further chain): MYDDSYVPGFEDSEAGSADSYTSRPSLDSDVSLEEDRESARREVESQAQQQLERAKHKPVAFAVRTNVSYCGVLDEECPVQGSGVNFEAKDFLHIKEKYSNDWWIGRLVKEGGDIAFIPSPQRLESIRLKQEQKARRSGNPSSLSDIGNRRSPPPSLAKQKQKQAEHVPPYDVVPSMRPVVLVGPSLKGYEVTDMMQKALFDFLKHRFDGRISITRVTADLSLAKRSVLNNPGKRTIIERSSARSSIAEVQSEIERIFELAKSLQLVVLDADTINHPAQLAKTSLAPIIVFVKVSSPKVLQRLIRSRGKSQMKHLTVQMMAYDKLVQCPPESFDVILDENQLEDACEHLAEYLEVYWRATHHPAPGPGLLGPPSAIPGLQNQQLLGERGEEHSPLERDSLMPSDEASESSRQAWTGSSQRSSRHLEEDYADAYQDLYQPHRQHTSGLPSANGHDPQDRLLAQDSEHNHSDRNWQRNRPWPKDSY

In the case of `Cc1c(-c2ccc(Cl)cc2F)c(C(=O)N(C)CC(C)(C)CO)n(Cc2ccccc2)c1C(F)(F)F` [SC-107, 1-Benzyl-3-(4-chloro-2-fluoro-phenyl)-N-(3-hydroxy-2,2-dimethyl-propyl)-N,4-dimethyl-5-(trifluoromethyl)-1H-pyrrole-2-carboxylic acid amide], the inhibition at 3 µM was more than 95%.

Take `COC1CCN(C(=O)c2c(-c3ccc(Cl)cc3)cc(C(F)(F)F)n2Cc2ccccc2)CC1` [SC-208, [1-Benzyl-3-(4-chlorophenyl)-5-(trifluoromethyl)-1H-pyrrol-2-yl]-(4-methoxy-piperidin-1-yl)-methanone]: the inhibition at 3 µM was more than 95%.

On to `CC(=O)N1CCN(C(=O)c2c(-c3ccc(Cl)cc3)cc(C(F)(F)F)n2Cc2ccccc2)CC1` [SC-209, 1-[4-[1-Benzyl-3-(4-chlorophenyl)-5-(trifluoromethyl)-1H-pyrrole-2-carbonyl]-piperazin-1-yl]-ethanone], for which the inhibition at 3 µM is more than 95%.

As to `Cc1c(-c2ccc(C(F)(F)F)cc2)c(C(=O)N(C)CC(C)(C)C)n(Cc2ccccc2)c1C(F)(F)F` [SC-233, 1-Benzyl-N-(2,2-dimethyl-propyl)-N,4-dimethyl-5-(trifluoromethyl)-3-[4-(trifluoromethyl)-phenyl]-1H-pyrrole-2-carboxylic acid amide], the inhibition at 3 µM fell in the range of 30 to 40%.

On to `Cc1c(-c2ccc(Cl)cc2)c(C(=O)N(C)C2CCN(C)CC2)n(Cc2ccccc2)c1C(F)(F)F` [SC-39, 1-Benzyl-3-(4-chlorophenyl)-N,4-dimethyl-N-(1-methyl-piperidin-4-yl)-5-(trifluoromethyl)-1H-pyrrole-2-carboxylic acid amide], for which the inhibition at 3 µM is more than 95%.

Consider `Cc1c(-c2ccc(OC(F)(F)F)cc2)c(C(=O)N(C)CCS(C)(=O)=O)n(Cc2ccccc2)c1C(F)(F)F` [SC-236, 1-Benzyl-N,4-dimethyl-N-(2-methylsulfonyl-ethyl)-5-(trifluoromethyl)-3-[4-(trifluoromethyloxy)-phenyl]-1H-pyrrole-2-carboxylic acid amide], for which the inhibition at 3 µM is more than 95%.

For `CN(CC(C)(C)CO)C(=O)c1c(-c2ccc(Cl)cc2)cc(C(F)(F)F)n1Cc1ccccc1` [SC-79, 1-Benzyl-3-(4-chlorophenyl)-N-(3-hydroxy-2,2-dimethyl-propyl)-N-methyl-5-(trifluoromethyl)-1H-pyrrole-2-carboxylic acid amide], the inhibition at 3 µM is more than 95%.

Take `Cc1c(-c2ccc(OC(F)(F)F)cc2)c(C(=O)N(C)C2CC2)n(Cc2ccccc2)c1C(F)(F)F` [SC-238, 1-Benzyl-N-cyclopropyl-N,4-dimethyl-5-(trifluoromethyl)-3-[4-(trifluoromethyloxy)-phenyl]-1H-pyrrole-2-carboxylic acid amide]: the inhibition at 3 µM was 40 to 75%.

Consider `Cc1c(-c2ccc(Cl)cc2F)c(C(=O)N(C)CCCS(C)(=O)=O)n(Cc2ccccc2)c1C(F)(F)F` [SC-161, 1-Benzyl-3-(4-chloro-2-fluoro-phenyl)-N,4-dimethyl-N-(3-methylsulfonyl-propyl)-5-(trifluoromethyl)-1H-pyrrole-2-carboxylic acid amide], for which the inhibition at 3 µM is more than 95%.

Turning to `Cc1c(-c2ccc(Cl)cc2)c(C(=O)N2CC(O)C2)n(Cc2ccccc2)c1C(F)(F)F` [SC-05, [1-Benzyl-3-(4-chlorophenyl)-4-methyl-5-(trifluoromethyl)-1H-pyrrol-2-yl]-(3-hydroxy-azetidin-1-yl)-methanone], the inhibition at 3 µM was in the range of 75 to 95%.

On to `Cc1c(-c2ccc(Cl)c(F)c2)c(C(=O)N(C)CC(C)(C)CO)n(Cc2ccccc2)c1C(F)(F)F` [SC-243, 1-Benzyl-3-(4-chloro-3-fluoro-phenyl)-N-(3-hydroxy-2,2-dimethyl-propyl)-N,4-dimethyl-5-(trifluoromethyl)-1H-pyrrole-2-carboxylic acid amide], for which the inhibition at 3 µM is more than 95%.

`Cc1c(-c2ccc(Cl)cc2)c(C(=O)N(C)C(CO)C(C)(C)C)n(Cc2ccccc2)c1C(F)(F)F` (stereo not shown) [SC-124, 1-Benzyl-3-(4-chlorophenyl)-N-[1-(hydroxymethyl)-2,2-dimethyl-propyl]-N,4-dimethyl-5-(trifluoromethyl)-1H-pyrrole-2-carboxylic acid amide]: the inhibition at 3 µM is more than 95%.

With `CN(CC1CCOC1)C(=O)c1c(-c2ccc(Cl)cc2)cc(C(F)(F)F)n1Cc1ccccc1` (stereo not shown) [SC-182, 1-Benzyl-3-(4-chlorophenyl)-N-methyl-N-(tetrahydro-furan-3-yl-methyl)-5-(trifluoromethyl)-1H-pyrrole-2-carboxylic acid amide], the inhibition at 3 µM was more than 95%.

For the compound `Cc1c(-c2ccc(Cl)cc2)c(C(=O)N(C)CC2(C)COC2)n(Cc2ccccc2)c1C(F)(F)F` [SC-60, 1-Benzyl-3-(4-chlorophenyl)-N,4-dimethyl-N-[(3-methyl-oxetan-3-yl)-methyl]-5-(trifluoromethyl)-1H-pyrrole-2-carboxylic acid amide], the inhibition at 3 µM was more than 95%.

For the compound `Cc1c(-c2ccc(F)c(Cl)c2)c(C(=O)N(C)C(C)(C)CO)n(Cc2ccccc2)c1C(F)(F)F` [SC-257, 1-Benzyl-3-(3-chloro-4-fluoro-phenyl)-N-(2-hydroxy-1,1-dimethyl-ethyl)-N,4-dimethyl-5-(trifluoromethyl)-1H-pyrrole-2-carboxylic acid amide], the inhibition at 3 µM fell in the range of 75 to 95%.

For the compound `CN(CCS(C)(=O)=O)C(=O)c1c(-c2ccc(Cl)cc2F)cc(C(F)(F)F)n1Cc1ccccc1` [SC-90, 1-Benzyl-3-(4-chloro-2-fluoro-phenyl)-N-methyl-N-(2-methylsulfonyl-ethyl)-5-(trifluoromethyl)-1H-pyrrole-2-carboxylic acid amide], the inhibition at 3 µM was more than 95%.

For `Cc1c(-c2ccc(OCC(F)(F)F)cc2)c(C(=O)N(C)CC(C)(C)C)n(Cc2ccccc2)c1C(F)(F)F` [SC-260, 1-Benzyl-N,4-dimethyl-N-neopentyl-3-(4-(2,2,2-trifluoroethoxy)phenyl)-5-(trifluoromethyl)-1H-pyrrole-2-carboxamide], the inhibition at 3 µM is 40 to 75%.

Consider `Cc1c(-c2ccc(Cl)cc2)c(C(=O)N(C)Cc2ccncn2)n(Cc2ccccc2)c1C(F)(F)F` [SC-144, 1-Benzyl-3-(4-chlorophenyl)-N,4-dimethyl-N-(pyrimidin-4-yl-methyl)-5-(trifluoromethyl)-1H-pyrrole-2-carboxylic acid amide], for which the inhibition at 3 µM is more than 95%.

`CN(CCCS(C)(=O)=O)C(=O)c1c(-c2ccc(Cl)cc2)cc(C(F)(F)F)n1Cc1ccccc1` [SC-189, 1-Benzyl-3-(4-chlorophenyl)-N-methyl-N-(3-methylsulfonyl-propyl)-5-(trifluoromethyl)-1H-pyrrole-2-carboxylic acid amide]: the inhibition at 3 µM was more than 95%.

In the case of `CS(=O)(=O)C1CN(C(=O)c2c(-c3ccc(Cl)cc3)cc(C(F)(F)F)n2Cc2ccccc2)C1` [SC-201, [1-Benzyl-3-(4-chlorophenyl)-5-(trifluoromethyl)-1H-pyrrol-2-yl]-(3-methylsulfonyl-azetidin-1-yl)-methanone], the inhibition at 3 µM lay in the range of 75 to 95%.

For the compound `Cc1c(-c2ccc(Cl)cc2F)c(C(=O)N2CCCC2CS(C)(=O)=O)n(Cc2ccccc2)c1C(F)(F)F` (stereo not shown) [SC-162, [1-Benzyl-3-(4-chloro-2-fluoro-phenyl)-4-methyl-5-(trifluoromethyl)-1H-pyrrol-2-yl]-[2-(methylsulfonyl-methyl)-pyrrolidin-1-yl]-methanone], the inhibition at 3 µM is more than 95%.

As to `Cc1c(-c2ccc(Cl)cc2)c(C(=O)N(C)CC(C)(C)CO)n(Cc2ccccc2)c1C(F)(F)F` [SC-106, 1-Benzyl-3-(4-chlorophenyl)-N-(3-hydroxy-2,2-dimethyl-propyl)-N,4-dimethyl-5-(trifluoromethyl)-1H-pyrrole-2-carboxylic acid amide], the inhibition at 3 µM was more than 95%.

`Cc1c(-c2ccc(OC(F)(F)F)cc2)c(C(=O)N2CC(F)(F)C2)n(Cc2ccccc2)c1C(F)(F)F` [SC-97, [1-Benzyl-4-methyl-5-(trifluoromethyl)-3-[4-(trifluoromethyloxy)-phenyl]-1H-pyrrol-2-yl]-(3,3-difluoro-azetidin-1-yl)-methanone]: the inhibition at 3 µM fell in the range of 40 to 75%.

Consider `CN(CC1(CO)CCC1)C(=O)c1c(-c2ccc(Cl)cc2)cc(C(F)(F)F)n1Cc1ccccc1` [SC-179, 1-Benzyl-3-(4-chlorophenyl)-N-[[1-(hydroxymethyl)-cyclobutyl]-methyl]-N-methyl-5-(trifluoromethyl)-1H-pyrrole-2-carboxylic acid amide], for which the inhibition at 3 µM is more than 95%.

Turning to `Cc1c(-c2ccc(Cl)cc2)c(C(=O)NC2(CO)CC2)n(Cc2ccccc2)c1C(F)(F)F` [SC-16, 1-Benzyl-3-(4-chlorophenyl)-N-[1-(hydroxymethyl)-cyclopropyl]-4-methyl-5-(trifluoromethyl)-1H-pyrrole-2-carboxylic acid amide], the inhibition at 3 µM is 75 to 95%.

Turning to `Cc1c(-c2ccc(F)c(Cl)c2)c(C(=O)N(C)CC(C)(C)C)n(Cc2ccccc2)c1C(F)(F)F` [SC-256, 1-Benzyl-3-(3-chloro-4-fluoro-phenyl)-N-(2,2-dimethyl-propyl)-N,4-dimethyl-5-(trifluoromethyl)-1H-pyrrole-2-carboxylic acid amide], the inhibition at 3 µM was in the range of 30 to 40%.

Consider `Cc1c(-c2ccc(Cl)cc2)c(C(=O)N(C)C2CCOCC2)n(Cc2ccccc2)c1C(F)(F)F` [SC-11, 1-Benzyl-3-(4-chlorophenyl)-N,4-dimethyl-N-tetrahydro-pyran-4-yl-5-(trifluoromethyl)-1H-pyrrole-2-carboxylic acid amide], for which the inhibition at 3 µM is more than 95%.

For `Cc1c(-c2ccc(C(F)(F)F)cc2)c(C(=O)N(C)C2CCOCC2)n(Cc2ccccc2)c1C(F)(F)F` [SC-229, 1-Benzyl-N,4-dimethyl-N-tetrahydro-pyran-4-yl-5-(trifluoromethyl)-3-[4-(trifluoromethyl)-phenyl]-1H-pyrrole-2-carboxylic acid amide], the inhibition at 3 µM lay in the range of 75 to 95%.
